From patent US20170183644A1, “DRUG COCKTAIL ANALYSES USING MICROSCALE VORTEX ASSISTED ELECTROPORATION” (President and Fellows of Harvard College, priority 2014, published 2017)

Assays:
[1] = tested on: MDA-MB-231 cells; assay: Microfluidic vortex-assisted electroporation drug screening assay, CellTiter-Glo cell viability; type: cell-based; details: for IC50: microfluidic electroporation, single agent, read-out: Proposed IC50; for effect on cell viability as a single agent: microfluidic assay
Description: These cells were incubated in a humidified incubator at 37° C. with […] environment. Cells were harvested for experiments 2 days after the seeding by treating them with 0.25% trypsin-EDTA for 2 minutes. The cells were pelleted by centrifuging for 5 minutes at 200×g and resuspended in the growth media to have a final concentration of 5×10^5 cells/mL. The system utilized the pneumatic flow control unit and the electrical equipment that we previously developed. Their detailed specifications and visualized operational protocols (Yun et al., 2013; Vickers et al., 2014) can be found elsewhere. In brief, the flow control unit independently and promptly pressurizes individual solution vials for rapid solution exchanges through the microfluidic system while the electrical equipment generates high-voltage short pulses across the electroporation chambers on demand. […] Solution vials, individually containing cells, drugs and a growth media for flushing, were mounted into the pneumatic flow control unit, and PEEK tubes from each vial inserted into designated inlet ports in the microfluidic electroporator. The system was flushed with the growth media at the operating pressure of 40 psi (equivalent to a flow rate of 400 μL/minute) for 90 seconds prior to the target cell injection step in order to prime the flow speed required for cell trapping (Hur et al., 2011). Once the desired size and number distribution of trapped cells were attained in each cell trapping vortex, not-trapped cells were removed from the device by switching the active solution port from the cell solution to the flush solution. […] The magnitude, V, the width, Kt, and the frequency of applied electrical pulses were monitored in real-time using an oscilloscope (Agilent, USA). Drug delivery doses were varied by exposing trapped cells to a single drug for incubation durations of 30, 60 and 120 seconds in continuous flow. For dual drug delivery tests, trapped cells were sequentially incubated in individual drugs with various dosage combinations by systematically changing treatment duration ratios of two drugs (e.g., 30:30 seconds, 30:60 seconds or 30:120 seconds). Upon completion of the drug delivery process, treated cells were suspended in the growth media and released from the device for downstream analysis by lowering the operating pressure to 30 psi. Collected cells were seeded in 96 well plates and cultured for 24 to 48 hours prior to the cytotoxicity assays. […] Conventional drug screening assays utilizing well-plates were conducted in parallel to evaluate the performance of the proposed microfluidic system. […] For control experiments using the conventional method, the concentrations of drugs were determined such that cells would be exposed in a well plate for 24 hours to the drug amount that is identical to those used for the microfluidic counterpart. […] The CellTiter-Glo Luminescent Cell Viability Assay (Promega, USA) was used to determine the cytotoxicity of tested drugs. First, the correlation between the luminescent intensity and the number of viable cells for the tested cell line was established from luminescence measurements from 96 well plates containing known-quantity of viable cells (LuMate, Model 4400) (see ESI FIG. 2 for calibration curve). For cytotoxicity studies on cells treated with the drugs, all cells present in the well, regardless their viability, were manually counted prior to adding the CellTiter-Glo reagent to the well. The number of viable cells was determined by identifying the corresponding number of viable cells represented by the measured luminescent intensity from the calibration curve. Viability was determined by taking the ratio between the number of viable cells and the total number of treated cells presented in the well.

[2] = tested on: MDA-MB-231 cells; assay: Conventional well-plate drug screening assay, CellTiter-Glo cell viability; type: cell-based; details: for effect on cell viability as a single agent: conventional assay
Description: These cells were incubated in a humidified incubator at 37° C. with 0% CO2 environment. Cells were harvested for experiments 2 days after the seeding by treating them with 0.25% trypsin-EDTA for 2 minutes. […] Conventional drug screening assays utilizing well-plates were conducted in parallel to evaluate the performance of the proposed microfluidic system. […] For control experiments using the conventional method, the concentrations of drugs were determined such that cells would be exposed in a well plate for 24 hours to the drug amount that is identical to those used for the microfluidic counterpart. […] The CellTiter-Glo Luminescent Cell Viability Assay (Promega, USA) was used to determine the cytotoxicity of tested drugs. First, the correlation between the luminescent intensity and the number of viable cells for the tested cell line was established from luminescence measurements from 96 well plates containing known-quantity of viable cells (LuMate, Model 4400) (see ESI FIG. 2 for calibration curve). For cytotoxicity studies on cells treated with the drugs, all cells present in the well, regardless their viability, were manually counted prior to adding the CellTiter-Glo reagent to the well. The number of viable cells was determined by identifying the corresponding number of viable cells represented by the measured luminescent intensity from the calibration curve. Viability was determined by taking the ratio between the number of viable cells and the total number of treated cells presented in the well.

[3] = tested on: MC38 colon cancer cell line; details: MC38 colon cancer cell line (Kuriyoma et al., 2000); read-out: Literature IC50; cited from earlier work
[4] = tested on: MDA-MB-231; details: MDA-MB-231 (Akbos et al., 2005); read-out: Literature IC50; cited from earlier work
[5] = tested on: Ca-27 squamous carcinoma; details: Ca-27 squamous carcinoma (Wang et al., 2012); read-out: Literature IC50; cited from earlier work
[6] = Homo sapiens, MDA-MB-231, well plate, single agent, read-out: Conventional IC50

Compound: bleomycin
- IC50 [1]: 0.12 µM
- IC50 ([2]; FIG. 2 legend, values match conventional assay, read-out: IC50 (FIG. 2 legend)): 30 µM
- IC50 ([2]; well plate, single agent, read-out: Conventional IC50): 20 µM
- IC50 [3]: 12 µM

Compound: CC[C@@]1(O)C(=O)OCc2c1cc1n(c2=O)Cc2cc3c(CN(C)C)c(O)ccc3nc2-1 [Topotecan, topotecan]
- IC50 ([1]; Homo sapiens, MDA-MB-231): 1.2 µM
- effect on cell viability as a single agent [1]: dose-dependently reduced survival
- IC50 ([2]; Homo sapiens, MDA-MB-231, FIG. 2 legend, values match conventional assay, read-out: IC50 (FIG. 2 legend)): 2 µM
- IC50 [2, 6]: 2 µM
- effect on cell viability as a single agent ([2]; single agent): dose-dependently reduced survival
- IC50 [4]: 1.1 µM

Compound: O=c1c(O)c(-c2ccc(O)c(O)c2)oc2cc(O)cc(O)c12 [quercetin]
- effect on cell viability as a single agent [1]: negligible and dose independent
- effect on cell viability as a single agent ([1]; listed as Quercetin): negligible cytotoxic effect
- effect on cell viability as a single agent ([2]; single agent): negligible and dose independent
- effect on cell viability as a single agent ([2]; single agent, listed as Quercetin): negligible cytotoxic effect

Compound: Nc1ccn([C@@H]2O[C@H](CO)[C@@H](O)C2(F)F)c(=O)n1 [Gemcitabine, gemcitabine]
- IC50 ([1]; Homo sapiens, MDA-MB-231): 302 µM
- IC50 ([2]; Homo sapiens, MDA-MB-231, FIG. 2 legend, value matches conventional assay, read-out: IC50 (FIG. 2 legend)): 2000 µM
- IC50 [2, 6]: 2000 µM
- IC50 [5]: 340 µM
